# Assay results reported in PMC7037731, “Synthesis, Anticancer Activity, and Preliminary Pharmacokinetic Evaluation of 4,4-Disubstituted Curcuminoid 2,2-bis(Hydroxymethyl)Propionate Derivatives” (Molecules, 2020).
# Assays:
# [1] = Solubility in aqueous dosing vehicle; type: physicochemical; conditions: aqueous with cosolvent or surfactant or cyclodextrin, 5% ethanol, 10% Tween 80, 85% saline, read-out: maximum solubility in aqueous vehicle
# Text: Subsequently, the latter would be converted into glucuronide 22 and sulfate 23 through the phase II metabolism conjugation of hydrogenated products 18, 19, 20, and 21 via the phase I metabolic pathway (Scheme 6). To verify our assumptions, the preliminary pharmacokinetic evaluation of 2 was executed.
# MDA-MB-231 [2] = experiment: MTT anti-proliferative assay, MDA-MB-231; type: cell-based; conditions: Homo sapiens, 48 h treatment, MTT, mean ± SD of at least three experiments, read-out: IC50 (M)/ 48 h MDA-MB-231
# Method: (§1) These compounds, along with all newly synthesized compounds, were screened for anti-proliferative activity against the same TNBC and colon cancer cell lines.
# (§2) Cell viability was evaluated by measuring the reduction in MTT to yield blue formazan. Cells were cultured in 96-well plates, allowed to attach overnight, and then treated with compounds. After treatment, MTT solution (1 mg/mL) was added to each well, and plates were incubated for another 2 h. Medium was removed, blue formazan was dissolved in DMSO, and the absorbance was read at 570 nm by Multiskan Go spectrophotometer (Thermo Scientific, Madison, WI, USA).
# [3] = tested on: HCT-116 colon tumor xenograft; experiment: In vivo antitumor activity, HCT-116 colon tumor xenograft bearing nude mice; parameters: species or system nu/nu mice; conditions: 30 days
# Method: (§3) The therapeutic effect of 2 was evaluated on HCT-116 colon tumor xenograft bearing nude mice. The oral administration of 2 at doses of 50, 100, or 150 mg/kg bw per day were performed after tumors reached approximately 100 mm^3 and continued for 30 consecutive days. 5-Fluorouracil treatment (30 mg/kg bw, i.p., QOD) was used as a positive control. […] There was a clear dose- and time-dependent inhibitory effect on tumor size in the other two groups, in which at 50 and 150 mg/kg doses the volume of the HCT-116 colon tumor was reduced to 73% and 40% of the control, respectively (Figure 2). The body weight of the mice was recorded prior to dosing every 3 d, and the average body weight of each group is depicted in Figure 3. Otherwise, they were monitored for visible signs of toxicity and behavioral changes 1 h after each administration.
# Male nu/nu mice (5 weeks old) from National Laboratory Animal Center (Taipei, Taiwan) were maintained under the procedures and guidelines provided by the Institutional Animal Care and Use Committee of the National Health Research Institutes (Taipei, Taiwan). All experiments were supervised under the Institutional Animal Care and Use Committee, China Medical University, Taichung, Taiwan with a protocol number ([…]-2018-278). HCT-116 colon cancer cells (5 × 10^6 cells per mouse) were suspended in 0.1 mL of Matrigel solution (50% v/v Matrigel in PBS) and inoculated into the mammary fat pads of the mice. When the tumor size reached 100 mm^3, the tumor-bearing mice were randomly divided into four groups for treating with vehicle (5% ethanol and 10% tween 80 in 85% saline, 0.1 mL) and 2 (p.o. 50, 100 and 150 mg/kg/day body weight) respectively. Compounds was administered via oral route daily for 30 days. 5-Fluorouracil-treated group (i.p. 30 mg/kg) is the positive control. Tumor size and mouse body weight were measured once every 3 days, and tumor volume (mm^3) was calculated using the equation: length × (width)^2 × 0.5. At the end of experiments, mice were sacrificed.
# HCT-116 = experiment: MTT anti-proliferative assay, HCT-116; type: cell-based; conditions: Homo sapiens, 48 h treatment, MTT, mean ± SD of at least three experiments, read-out: IC50 (M)/ 48 h HCT-116
# Method: as §1, §2
# [4] = Preliminary pharmacokinetic evaluation of 2 in rat (LC-MS of serum); type: in vivo, Sprague-Dawley rats; conditions: for time of maximum blood content: LC signal in serum
# Method: Male Sparague-Dawley rat (420 g) from National Laboratory Animal Center, Taipei, Taiwan were maintained under the regulations of the Institutional Animal Care and Use Committee of the National Health Research Institutes, Taiwan. The animal studies were supervised under the Institutional Animal Care and Use Committee, China Medical University, Taichung, Taiwan with a protocol number ([…]-2018-278). Rat was fasted for 16 h before dosing. Compound 2 was dissolved in aqueous solution (5% ethanol and 10% Tween80 in 85% saline) and administrated via oral gavage at a dosage of 100 mg/kg. Blood samples were collected at selected time points (5, 10, 20, 30, 60, 120, 240, 360, 480 min) post dose and centrifuged at 10,000× g for 15 min to provide serum samples, which were stored at −80 °C until subsequent sample extraction.
# Methods for the preparation of 2, 2m, 18, 19, 20 and 21 serum sample are delineated as follows. 50 μL of acetate buffer (pH 5.0), 50 μL of ascorbic acid (200 mg/mL), and 50 μL of 0.1 N HCl solution was added into 100 μL of serum which was collected at different time points). The resulting mixture was partitioned with 250 μL of ethyl acetate (containing 5.0 μg/mL of butyl paraben as the internal standard). After centrifuging at 10,000× g for 15 min, the upper organic layer was separated and dried under nitrogen gas to provide the crude sample, which was diluted with an appropriate volume of acetonitrile for LC-MS analysis.
# The amount of 22 and 23 were analyzed by the serum samples before and after treatment with enzyme solution. The procedure for enzyme treatment is shown as follows. 100 μL of serum was treated with enzyme solution (50 μL; containing 1000 units/mL of sulfatase and 39861 units/mL of β-glucuronidase in pH 5.0 acetate buffer), 50 μL of 0.1 N HCl solution and 50 μL of ascorbic acid (200 mg/mL) in the light protected tubes at 37 °C. For optimal hydrolysis efficiency, the incubation time was decided as 2 h based on a previous study. The mixture was then partitioned with 250 μL of ethyl acetate (containing 5.0 μg/mL of butyl paraben as the internal standard). After centrifuging at 10,000× g for 15 min, the upper organic layer was separated and dried under nitrogen gas to provide the crude sample, which was diluted with an appropriate volume of acetonitrile for LC analysis.
# All samples obtained from in vivo pharmacokinetic studies were assayed using LC-MS for the analysis of 2 and the corresponding metabolites. The Waters ACQUITY UPLC I-Class system (Waters Corp., Milford, MA, USA) was utilized. System control and all of the mass spectrometry data were acquired and analyzed using UNIFI software (Waters Corp.). For sample separation, the LC was equipped with an Inertsil ph-3 (50 × 2.1 mm, 2 μm particle size) RPLC column (GL Sciences Inc. Tokyo, Japan) in which the column temperature was held at 35 °C, injection volume was 7.5 μL, and the flow rate of the mobile phase was 200 μL/min. The elution started from 50% mobile phase A (ultrapure water + 0.1% formic acid) and 50% mobile phase B (100% methanol + 0.1% formic acid), held at 50% B for 0.5 min, raised to 95% B in 5.5 min, held at 95% B for 1 min, and then lowered to 50% B in 1 min. Before sample injection, the column was equilibrated by pumping 50% B for 4 min. The analysis of target compounds for all samples was performed by using a Waters Vion IMS QTof mass spectrometer. Data were acquired in the electrospray ionization (ESI) positive ion MS^E mode with range of m/z 100–1000 and 0.5 s scan time. Parameters were set as capillary voltage of 2.5 kV, source temperature of 100 °C, desolvation temperature at 250 °C, cone gas maintained at 10 L/h, desolvation gas maintained at 600 L/h. The acquired m/z and isotope pattern were processed by UNIFI software to illustrate chromatogram, and the amounts of compound was calculated with the integrated peak area of signals.
# [5] = Visible signs of toxicity and behavioral changes in xenograft mice; type: in vivo; conditions: 50, 100, 150 mg/kg p.o. daily, 30 days, vs control groups
# Method: as §3
# Male nu/nu mice (5 weeks old) from National Laboratory Animal Center (Taipei, Taiwan) were maintained under the procedures and guidelines provided by the Institutional Animal Care and Use Committee of the National Health Research Institutes (Taipei, Taiwan). […] Tumor size and mouse body weight were measured once every 3 days, and tumor volume (mm^3) was calculated using the equation: length × (width)^2 × 0.5. […]
# [6] = Chemical stability on storage; type: physicochemical; conditions: storage at 4 °C; DMSO-d6 1 week at room temperature
# Text: The low stability of 9 may have been due to self- or cross-hydrolysis, such that the two hydroxyl groups at the C-4 alkyl chains cleaved the ester linkage of the 2,2-bis(hydroxymethyl)propionate group. […] Therefore, we modified the hydroxymethyl group of 9 and were able to produce compounds 10 and 11. To prepare 10, compound 9 was acetylated with acetyl chloride in the presence of Et3N, and the resulting di-acetylation intermediate was hydrolyzed by hydrochloric acid. Compound 11 was obtained with an overall yield of 5% following a similar three-step reaction modified for methylation. The stability of these two products at room temperature may have been due to the conversion of the labile hydroxyl groups of the C-4 alkyl chains of 10 and 11 into non-nucleophilic […] groups, respectively, which prevented degradation.
# MDA-MB-231 [7] = conditions: MDA-MB-231 in vitro and in vivo; cited from earlier work
IC50 (MDA-MB-231 [2]),IC50 (HCT-116),chemical stability [6],time from which the metabolite emerged in blood ([4]; after oral 2 at 100 mg/kg),melting point,Structure (SMILES),solubility [1],tumor volume as % of the control ([3]; 50 mg/kg p.o. daily),"tumor volume reduction ([3]; 50 mg/kg p.o. daily, vs control)","tumor volume reduction / tumor inhibition ratio ([3]; 100 mg/kg p.o. daily, vs control)",tumor volume as % of the control ([3]; 150 mg/kg p.o. daily),"tumor volume reduction ([3]; 150 mg/kg p.o. daily, vs control)",time of second highest blood content ([4]; after oral 2 at 100 mg/kg),time of third highest blood content ([4]; after oral 2 at 100 mg/kg),time of maximum blood content ([4]; after oral 2 at 100 mg/kg),plasma stability compared to curcumin ([4]; oral 100 mg/kg),"adverse effects (visible signs of toxicity, behavioral changes) [5]",potency relative to curcumin (times) (MDA-MB-231 [7])
> 0.0001 M,> 0.0001 M,unstable,,,"COc1cc(/C=C/C(=O)C(CO)(CO)C(=O)/C=C/c2ccc(OC(=O)C(C)(CO)CO)c(OC)c2)ccc1OC(=O)C(C)(CO)CO [Compound 9, [(1E,6E)-4,4-bis(Hydroxymethyl)-3,5-dioxohepta-1,6-diene-1,7-diyl]bis(2-methoxy-4,1-phenylene) bis[3-hydroxy-2-(hydroxymethyl)-2-methylpropanoate]]",,,,,,,,,,,,
4.17e-06 ± 1.5e-07 M,2.17e-06 ± 1.6e-07 M,,10 min,104 to 106 °C,"COc1cc(/C=C/C(=O)C(C)(C)C(=O)/C=C/c2ccc(O)c(OC)c2)ccc1O [Compound 2m, (1E,6E)-1,7-bis(4-Hydroxy-3-methoxyphenyl)-4,4-dimethylhepta-1,6-diene-3,5-dione]",,,,,,,,,120 min,,,
3.06e-06 ± 1.8e-07 M,6.25e-06 ± 6e-07 M,,,,"COc1cc(/C=C/C(=O)/C=C(O)/C=C/c2ccc(OC(=O)C(C)(CO)CO)c(OC)c2)ccc1OC(=O)C(C)(CO)CO [Compound 1, curcumin di-O-2,2-bis(hydroxymethyl)propionate]",,,,,,,,,,,,8 to 10

Structure (SMILES),IC50 (MDA-MB-231 [2]),IC50 (HCT-116),chemical stability [6],time from which the metabolite emerged in blood ([4]; after oral 2 at 100 mg/kg),melting point,solubility [1],tumor volume as % of the control ([3]; 50 mg/kg p.o. daily),"tumor volume reduction ([3]; 50 mg/kg p.o. daily, vs control)","tumor volume reduction / tumor inhibition ratio ([3]; 100 mg/kg p.o. daily, vs control)",tumor volume as % of the control ([3]; 150 mg/kg p.o. daily),"tumor volume reduction ([3]; 150 mg/kg p.o. daily, vs control)",time of second highest blood content ([4]; after oral 2 at 100 mg/kg),time of third highest blood content ([4]; after oral 2 at 100 mg/kg),time of maximum blood content ([4]; after oral 2 at 100 mg/kg),plasma stability compared to curcumin ([4]; oral 100 mg/kg),"adverse effects (visible signs of toxicity, behavioral changes) [5]",potency relative to curcumin (times) (MDA-MB-231 [7])
COc1cc(/C=C/C(=O)C(C)(C)C(=O)/C=C/c2ccc(OC(=O)C(C)(CO)CO)c(OC)c2)ccc1OC(=O)C(C)(CO)CO [Compound 2],2.25e-06 ± 1e-07 M,3.1e-06 ± 2.9e-07 M,,,,~200 mg/mL,73%,27%,45%,40%,60%,120 min,360 min,20 min,superior plasma stability,No obvious adverse effects,
